# Data reported in patent US9707269B2, “Sugar compositions for treating hemophilia A and/or von Willebrand disease” (CSL Behring GmbH, priority 2012, dated 2017).
# Entries after “also recorded” stand apart in the source; their conditions may differ.
# Legend:
# rhASGPR [1] = molecular target: T1, rhASGPR (Homo sapiens, UniProt P07306); assay: Solid-phase binding assay of multimeric VWF with rhASGPR; settings: VWF 100 to 3 μg/mL, 1 hour at +37 °C; FIG. 12
# T1 construct: The extracellular domains of receptor proteins were acquired from R&D Systems (Wiesbaden, Germany); purchased R&D Systems (Wiesbaden, Germany)
# T1 sequence (P07306 62-291 limits assumed): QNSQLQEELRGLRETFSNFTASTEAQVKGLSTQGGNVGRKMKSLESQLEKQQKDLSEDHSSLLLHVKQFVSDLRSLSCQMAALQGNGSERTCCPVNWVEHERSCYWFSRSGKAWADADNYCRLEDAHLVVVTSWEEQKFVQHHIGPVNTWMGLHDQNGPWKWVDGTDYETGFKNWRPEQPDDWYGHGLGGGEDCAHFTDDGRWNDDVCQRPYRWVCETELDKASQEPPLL
# Source text: In addition to SPR-based interaction analysis with monomeric VWF, the interaction of multimeric VWF (purified from human plasma) with rhASGPR was investigated by using solid-phase binding assay. In addition, asialo-VWF (plasma derived VWF after treatment with α(2-3,6,8)-neuraminidase) was used as control.
# Lyophilized rhASGPR (R&D Systems, Wiesbaden, Germany) was reconstituted and diluted in 0.05 M carbonate-bicarbonate buffer at pH 9.6, adsorbed onto high-adsorption 96-microwell plates at RT overnight, and subsequently washed with washing buffer (50 mM Tris, 150 mM NaCl, 5 mM CaCl2 and 0.1% (w/v) Tween-20 at pH 7.4). Afterwards, the wells were incubated for 1 hour with blocking solution (50 mM Tris, 150 mM NaCl, 5 mM CaCl2 and 2.5% (w/v) BSA at pH 7.4) in order to block non-specific binding, and then washed with washing buffer again. […] After washing the wells, associated VWF was subsequently detected by a commercial polyclonal rabbit anti-human VWF antibody conjugated with HRP (DakoCytomation, Glostrup, Denmark) that had been previously diluted 1:16,000 in dilution buffer. […] The reaction was stopped with stopping solution POD (Siemens Healthcare Diagnostics, Marburg, Germany) and the substrate reaction was photometrically monitored by measuring the difference in wave lengths at 450 nm and 620 nm.
# [2] = test system: clearance receptor candidates; assay: Interaction of pd VWF multimers with clearance receptor candidates and its inhibition (Example 10); assay type: binding; settings: example without data; for inhibition of binding of pd VWF multimers to clearance receptor candidates: in the presence of ASF or monosaccharides
# Source text: According to Example 9, pd VWF multimers interact with clearance receptor candidates mentioned earlier. In addition, binding is inhibited in the presence of ASF or monosaccharides such as galactose, fucose and N-acetylgalactosamine.
# rhASGPR [3] = molecular target: T1, rhASGPR; assay: SPR binding to immobilized clearance receptor rhASGPR; settings: 25 °C, 5 mM CaCl2, pH 7.4, FIGS. 9 and 10
# Procedure: SPR technology (Biacore T200, GE Healthcare Biosciences, Uppsala, Sweden) was applied to evaluate mechanisms of realtime biomolecular interactions between VWF, receptor-blocking agents and clearance receptor candidates. The interaction experiments were performed at a flow cell temperature of +25° C. by applying running buffer containing 10 mM HEPES, 150 mM NaCl, 5 mM CaCl2 and 0.05% Tween-20 at pH 7.4, which was also used as sample dilution buffer. Reagents and buffer stock solutions were purchased from GE Healthcare Biosciences (Uppsala, Sweden). The extracellular domains of receptor proteins were acquired from R&D Systems (Wiesbaden, Germany). […]
# (§1) Kinetic data were analyzed using Biacore T200 Evaluation Software Version 1.0 (GE Healthcare Biosciences, Uppsala, Sweden). An interaction of the analyte with the ligand was detected by an increase in accumulating mass and specific binding was identified by subtracting the binding response recorded from the control surface, followed by subtracting an average of the buffer blank injections. A report point was positioned 20 seconds after the end of sample injection and was evaluated as representative for a stable protein-ligand interaction, which was of interest. […] Furthermore, the response was calculated relative to the baseline in each case.
# rhCLEC4M = molecular target: T2, rhCLEC4M (Homo sapiens, UniProt Q9H2X3); assay: SPR binding to immobilized clearance receptor rhCLEC4M; settings: 25 °C, 5 mM CaCl2, pH 7.4, FIGS. 9 and 10
# T2 construct: The extracellular domains of receptor proteins were acquired from R&D Systems (Wiesbaden, Germany); purchased R&D Systems (Wiesbaden, Germany)
# T2 sequence (Q9H2X3 71-399 limits assumed): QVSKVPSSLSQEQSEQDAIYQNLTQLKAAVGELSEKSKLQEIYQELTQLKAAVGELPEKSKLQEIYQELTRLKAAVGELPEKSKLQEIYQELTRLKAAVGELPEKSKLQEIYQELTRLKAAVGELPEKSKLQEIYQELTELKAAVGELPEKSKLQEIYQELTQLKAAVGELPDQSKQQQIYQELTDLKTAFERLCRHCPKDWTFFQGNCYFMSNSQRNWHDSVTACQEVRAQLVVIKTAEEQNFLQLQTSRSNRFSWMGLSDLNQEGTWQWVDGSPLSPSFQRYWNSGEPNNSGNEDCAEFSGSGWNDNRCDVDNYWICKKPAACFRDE
# Procedure: (§2) SPR technology (Biacore T200, GE Healthcare Biosciences, Uppsala, Sweden) was applied to evaluate mechanisms of realtime biomolecular interactions between VWF, receptor-blocking agents and clearance receptor candidates. The interaction experiments were performed at a flow cell temperature of +25° C. by applying running buffer containing 10 mM HEPES, 150 mM NaCl, 5 mM CaCl2 and 0.05% Tween-20 at pH 7.4, which was also used as sample dilution buffer. Reagents and buffer stock solutions were purchased from GE Healthcare Biosciences (Uppsala, Sweden). The extracellular domains of receptor proteins were acquired from R&D Systems (Wiesbaden, Germany). The ligands were captured on Series S Sensor […] pretreated according to the manufacturer's instructions. The receptor proteins were covalently immobilized through free amine groups to the carboxymethylated dextran matrix by applying the amine coupling kit according to the manufacturer protocol. A blank flow cell without immobilized protein was included as a reference surface on the chip for bulk shift and nonspecific binding changes.
# (§3) Increasing concentrations of both ASF and fetuin ranging from 10,240 to 10 nM were prepared as a 2 fold serial dilution series in running buffer and sequentially injected across the chip surface at 25 μL/min in order to characterize protein-ligand interaction. […]
# as §1
# rmCLEC4F = molecular target: T3, rmCLEC4F (Mus musculus, UniProt P70194); assay: SPR binding to immobilized clearance receptor rmCLEC4F; settings: 25 °C, 5 mM CaCl2, pH 7.4, FIGS. 9 and 10
# T3 construct: The extracellular domains of receptor proteins were acquired from R&D Systems (Wiesbaden, Germany); purchased R&D Systems (Wiesbaden, Germany)
# T3 sequence (P70194 70-548 limits assumed): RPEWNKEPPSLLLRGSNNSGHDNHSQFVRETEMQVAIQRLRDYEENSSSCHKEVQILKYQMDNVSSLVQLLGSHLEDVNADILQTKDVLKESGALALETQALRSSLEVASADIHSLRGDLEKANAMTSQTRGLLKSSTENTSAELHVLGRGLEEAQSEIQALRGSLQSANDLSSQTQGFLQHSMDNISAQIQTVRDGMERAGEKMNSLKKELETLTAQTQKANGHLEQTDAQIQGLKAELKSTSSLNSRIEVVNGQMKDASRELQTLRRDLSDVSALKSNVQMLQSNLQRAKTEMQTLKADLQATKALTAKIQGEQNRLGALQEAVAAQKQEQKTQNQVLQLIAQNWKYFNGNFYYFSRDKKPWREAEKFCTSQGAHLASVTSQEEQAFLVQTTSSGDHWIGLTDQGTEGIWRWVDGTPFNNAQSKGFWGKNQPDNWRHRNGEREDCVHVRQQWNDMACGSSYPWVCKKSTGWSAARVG
# Procedure: as §2, §3, §1
# rhCLEC10A = molecular target: T4, rhCLEC10A (Homo sapiens, UniProt Q8IUN9); assay: SPR binding to immobilized clearance receptor rhCLEC10A; settings: 25 °C, 5 mM CaCl2, pH 7.4, FIGS. 9 and 10
# T4 construct: The extracellular domains of receptor proteins were acquired from R&D Systems (Wiesbaden, Germany); purchased R&D Systems (Wiesbaden, Germany)
# T4 sequence (Q8IUN9 61-316 limits assumed): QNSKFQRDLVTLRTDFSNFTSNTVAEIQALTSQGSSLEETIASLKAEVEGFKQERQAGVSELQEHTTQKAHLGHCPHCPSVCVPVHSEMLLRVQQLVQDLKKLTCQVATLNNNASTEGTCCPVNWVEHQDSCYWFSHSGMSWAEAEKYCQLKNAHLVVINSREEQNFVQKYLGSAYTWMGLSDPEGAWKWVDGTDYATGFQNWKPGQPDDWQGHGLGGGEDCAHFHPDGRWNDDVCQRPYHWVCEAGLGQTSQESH
# Procedure: as §2, §3, §1
# rhCOLEC12 = molecular target: T5, rhCOLEC12 (Homo sapiens, UniProt Q5KU26); assay: SPR binding to immobilized clearance receptor rhCOLEC12; settings: 25 °C, 5 mM CaCl2, pH 7.4, FIGS. 9 and 10
# T5 construct: The extracellular domains of receptor proteins were acquired from R&D Systems (Wiesbaden, Germany); purchased R&D Systems (Wiesbaden, Germany)
# Procedure: as §2, §3, §1
# rhSCARA5 = molecular target: T6, rhSCARA5 (Homo sapiens, UniProt Q6ZMJ2); assay: SPR binding to immobilized clearance receptor rhSCARA5; settings: 25 °C, 5 mM CaCl2, pH 7.4, FIGS. 9 and 10
# T6 construct: The extracellular domains of receptor proteins were acquired from R&D Systems (Wiesbaden, Germany); purchased R&D Systems (Wiesbaden, Germany)
# Procedure: as §2, §3, §1
# rhASGPR [4] = molecular target: T1, rhASGPR; assay: SPR inhibition of ASF binding to rhASGPR by monosaccharides; settings: in the presence of the monosaccharide, FIG. 11
# Procedure: as §2, §3
# as §1, with “case. […]” for “case.”
# clearance receptors = assay: Inhibition of pd VWF monomer interaction with clearance receptors by monosaccharides (Example 8); assay type: binding; settings: in the presence of monosaccharides; example without data
# Source text: According to example 7, the interaction of pd VWF monomers with clearance receptors mentioned earlier is inhibited in the in the presence of monosaccharides such as galactose, fucose and N-acetylgalactosamine.
# T6 sequence (Q6ZMJ2 82-495 limits assumed): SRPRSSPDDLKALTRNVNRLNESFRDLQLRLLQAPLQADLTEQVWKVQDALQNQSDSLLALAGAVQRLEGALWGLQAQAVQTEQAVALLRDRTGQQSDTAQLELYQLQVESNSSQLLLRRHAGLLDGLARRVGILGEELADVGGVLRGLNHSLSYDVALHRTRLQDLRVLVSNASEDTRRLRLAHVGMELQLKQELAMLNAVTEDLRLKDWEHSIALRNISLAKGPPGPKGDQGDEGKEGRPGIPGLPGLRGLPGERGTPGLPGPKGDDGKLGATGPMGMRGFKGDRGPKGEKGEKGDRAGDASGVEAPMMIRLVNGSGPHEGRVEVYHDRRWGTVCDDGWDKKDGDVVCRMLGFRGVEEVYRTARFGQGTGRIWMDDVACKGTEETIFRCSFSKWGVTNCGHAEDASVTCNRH
# T5 sequence (Q5KU26 59-742 limits assumed): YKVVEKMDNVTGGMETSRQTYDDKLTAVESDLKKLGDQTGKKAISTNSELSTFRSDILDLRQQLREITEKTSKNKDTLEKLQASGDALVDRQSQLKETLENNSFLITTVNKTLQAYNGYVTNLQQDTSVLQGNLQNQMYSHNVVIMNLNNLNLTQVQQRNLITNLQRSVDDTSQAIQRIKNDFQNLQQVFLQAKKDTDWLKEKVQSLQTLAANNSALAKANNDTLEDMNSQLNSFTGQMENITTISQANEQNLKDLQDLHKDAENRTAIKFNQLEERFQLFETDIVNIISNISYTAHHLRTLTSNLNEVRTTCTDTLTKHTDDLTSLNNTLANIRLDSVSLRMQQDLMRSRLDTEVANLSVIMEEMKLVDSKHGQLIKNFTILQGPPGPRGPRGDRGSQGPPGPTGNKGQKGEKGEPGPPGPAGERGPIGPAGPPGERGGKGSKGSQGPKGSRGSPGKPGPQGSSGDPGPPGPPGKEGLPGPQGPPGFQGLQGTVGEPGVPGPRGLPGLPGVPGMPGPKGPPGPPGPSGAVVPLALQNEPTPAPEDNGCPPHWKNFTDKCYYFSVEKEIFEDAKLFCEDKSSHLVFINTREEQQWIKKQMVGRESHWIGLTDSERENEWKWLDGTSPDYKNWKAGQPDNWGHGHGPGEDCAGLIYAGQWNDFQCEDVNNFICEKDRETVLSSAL
Compound,SPR binding to rhCLEC4M (rhCLEC4M),SPR binding to rmCLEC4F (rmCLEC4F),SPR binding to rhCLEC10A (rhCLEC10A),SPR binding to rhCOLEC12 (rhCOLEC12),SPR binding to rhSCARA5 (rhSCARA5),inhibition of ASF binding to immobilized rhASGPR (rhASGPR [4]),inhibition of interaction of pd VWF monomers with clearance receptors (clearance receptors),inhibition of binding of pd VWF multimers to clearance receptor candidates [2],also measured
"plasma derived VWF multimers: multimeric VWF purified from human plasma, native glycosylation structure without modifications",,,,,,,,,"interaction with rhASGPR, solid-phase binding assay (rhASGPR [1]): interacted with rhASGPR; interaction of pd VWF multimers with clearance receptor candidates ([2]; according to Example 9): interact"
fetuin [reference compound],almost not,almost not,almost not,almost not,almost not,,,,SPR binding to rhASGPR (rhASGPR [3]): almost not
"O=C[C@H](O)[C@@H](O)[C@@H](O)[C@H](O)CO [Gal, galactose]",,,,,,decreased binding; also recorded: inhibited binding,inhibited,inhibited,
"CC(=O)N[C@H]1C(O)O[C@H](CO)[C@H](O)[C@@H]1O (stereo partly drawn) [GalNac, N-acetylgalactosamine]",,,,,,decreased binding; also recorded: inhibited binding,inhibited,inhibited,
"C[C@H](O)[C@@H](O)[C@@H](O)[C@H](O)C=O [Fuc, fucose]",,,,,,decreased binding; also recorded: inhibited binding,inhibited,inhibited,
VWF: purified VWF monomers (pd VWF after reduction with dithiothreitol and carboxymethylation with iodoacetamide),bind efficiently,bind efficiently,bind efficiently,bind efficiently,bind efficiently,,,,SPR binding to rhASGPR (rhASGPR [3]): bind efficiently
"asialofetuin: bovine ASF (fetuin after the removal of terminal sialic acid residues), ligand blocking galactose receptors such as ASGPR",bind efficiently,bind efficiently,bind efficiently,bind efficiently,bind efficiently,,,inhibited,
"asialo-VWF multimers: plasma derived VWF after treatment with α(2-3,6,8)-neuraminidase, used as control",,,,,,,,,"interaction with rhASGPR, solid-phase binding assay (rhASGPR [1]): interacted with rhASGPR"
